Here are results for two compounds from patent publication US20240285776A1, “SMALL MOLECULE-BASED BI-SPECIFIC IMMUNE CELL TETHERS AND THEIR USE IN THE TREATMENT OF ENVELOPED VIRUS INFECTION” (PURDUE RESEARCH FOUNDATION, priority 2021, published 2024).

The test system of assay [1] is influenza infection. Nature of the assay: Treatment of FRβ knockout mice following influenza infection. Conditions: FRβ knockout mice treated following influenza infection. The format is in vivo, folate receptor beta (FRβ) knockout mice.
The test system of assay [2] is Influenza A Puerto Rico8/1934 (H1N1) virus. The format is in vivo, BALB/C mice.
For assay [3], the system named is Influenza A Puerto Rico/8/1934 (H1N1) virus. The format is in vivo, BALB/C mice. As to conditions: for weight-loss phenomenon: 1.5 μmol/kg once daily for five consecutive days, linear PEG linkers compared to the DBCO-containing linker; for survival rate at the end of the experiment: mouse, in vivo.
In assay [4] the test system is Influenza A H1N1/PR8/1932 virus. Set-up: species or system BALB/C mice. Conditions: mouse, in vivo.

For `CC(=O)N[C@H]1[C@H]([C@H](OC(=O)NCCOCCOCCOCCOCCOCCOCCNC(=O)CC[C@H](NC(=O)c2ccc(NCc3cnc4nc(N)[nH]c(=O)c4n3)cc2)C(=O)O)[C@H](O)CO)OC(C(=O)O)=C[C@@H]1NC(=N)N` [Compound 10], the “survival at the end of the experiment” value in assay [1] is recorded as “None of the mice survived”. Also, in assay [2] ([…], 1.5, 0.5 and 0.17 μmol/kg once daily for five consecutive days), the “dose response of survival rate” value was “increased with increasing dose”. Further, the survival rate in assay [2] (mouse, in vivo) was determined as 100%. Further, in assay [3], the weight-loss phenomenon entry is given as “more pronounced” and the “survival rate at the end of the experiment” value came out at 90%. Moreover, in assay [4], the “body weight over time” value was “did not lose any body weight” and the “survival at the end of two weeks long experiment” value is “both the mice survived”.

As for `CC(=O)N[C@H]1[C@H]([C@H](OC(=O)NCCOCCOCCOCCOCCOCCOCCOCCOCCOCCOCCOCCNC(=O)CC[C@H](NC(=O)c2ccc(NCc3cnc4nc(N)[nH]c(=O)c4n3)cc2)C(=O)O)[C@H](O)CO)OC(C(=O)O)=C[C@@H]1NC(=N)N` [zan-PEG11-folate], in assay [3], the weight-loss phenomenon entry is recorded as “more pronounced” and the “survival rate at the end of the experiment” value is on record as 100%.
